# Laboratory results published in US11485740B2, “Inhibitors of TRPC6” (Boehringer Ingelheim International GmbH, priority 2018, dated 2022).
# pIC50: −log10 of the molar value.
# Biological target: T1, human TRPC6 (Homo sapiens, UniProt Q9Y210)
# T1 construct: expressed in transfected cells
# T1 sequence (Q9Y210 1-931): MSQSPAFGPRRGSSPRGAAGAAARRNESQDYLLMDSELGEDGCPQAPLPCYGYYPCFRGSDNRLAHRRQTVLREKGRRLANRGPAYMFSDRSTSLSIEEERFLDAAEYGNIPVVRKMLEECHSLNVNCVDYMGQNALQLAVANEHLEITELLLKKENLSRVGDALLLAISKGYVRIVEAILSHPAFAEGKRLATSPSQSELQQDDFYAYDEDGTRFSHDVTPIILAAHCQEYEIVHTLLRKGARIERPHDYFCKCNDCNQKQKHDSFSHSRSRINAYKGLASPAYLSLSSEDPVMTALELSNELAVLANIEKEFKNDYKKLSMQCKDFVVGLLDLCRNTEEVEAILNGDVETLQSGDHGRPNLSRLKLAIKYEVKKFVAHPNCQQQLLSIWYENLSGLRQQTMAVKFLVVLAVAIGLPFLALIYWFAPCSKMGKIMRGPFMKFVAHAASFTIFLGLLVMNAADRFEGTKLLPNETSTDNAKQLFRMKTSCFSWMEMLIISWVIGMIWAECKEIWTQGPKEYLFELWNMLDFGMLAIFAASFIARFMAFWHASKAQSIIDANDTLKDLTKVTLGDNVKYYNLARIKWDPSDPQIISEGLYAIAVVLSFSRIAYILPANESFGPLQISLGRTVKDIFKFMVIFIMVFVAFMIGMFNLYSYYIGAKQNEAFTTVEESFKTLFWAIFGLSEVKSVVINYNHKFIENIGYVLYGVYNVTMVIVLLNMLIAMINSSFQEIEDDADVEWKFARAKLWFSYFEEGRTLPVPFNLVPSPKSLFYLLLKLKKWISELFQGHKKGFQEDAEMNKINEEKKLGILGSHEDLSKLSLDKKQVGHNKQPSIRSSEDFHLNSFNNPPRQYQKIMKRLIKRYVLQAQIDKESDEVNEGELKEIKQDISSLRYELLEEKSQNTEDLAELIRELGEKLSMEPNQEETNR
# Assay: High throughput screening assay: Fluo4/AM calcium fluorescence in HEK293/TREx cells expressing human TRPC6, agonist GSK1702934A (single concentration 10 μM and IC50 curves)
# Assay type: cell-based
# Details: antagonist effect against human TRPC6, 7 concentrations 20 μM to 0.027 μM, triplicate
# Procedure, shortened: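 HEK293/TREx cells stably carrying tetracycline-induced (1 μg/ml) human TRPC6, loaded with Fluo4/AM (0.5 μM, 60 min, RT), pretreated 2 min with compound (10 μM final in screen), then stimulated with GSK1702934A in high-Ca2+ Ringer's (20 mM Ca2+ final). Fluorescence ratio over ~3 min normalized to no-compound and control-blocker wells; IC50 from triplicate curves.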
row,Structure (SMILES),pIC50
1,"Nc1ccc(C2CCN(C(=O)c3ccc(-c4ccccc4)cc3)CC2)nn1 [Compound 1, [4-(6-Amino-pyridazin-3-yl)-piperidin-1-yl]-biphenyl-4-yl-methanone]",5.42
2,"Nc1ccc(C2CCN(C(=O)c3ccc(-c4ccc(Cl)cc4)cc3)CC2)nn1 [Compound 4, [4-(6-Amino-pyridazin-3-yl)-piperidin-1-yl]-(4′-chloro-biphenyl-4-yl)-methanone]",5.72
3,"COc1cc(C(=O)N2CCC(c3nnc(N)cc3OC)CC2)ncc1-c1ccc(C(F)(F)F)cc1 [Compound 85, [4-(6-Amino-4-methoxy-pyridazin-3-yl)-piperidin-1-yl]-[4-methoxy-5-(4-trifluoromethyl-phenyl)-pyridin-2-yl]-methanone]",6.46
4,COc1cc(-c2cnc(C(=O)N3CCC(c4ccc(N)nn4)CC3)cc2OC)ccc1OC(F)(F)F [Compound 13],7.06
5,"COc1cc(C(=O)N2CCC(c3ccc(N)nn3)CC2)ccc1-c1ccc(OCC(F)(F)F)cc1 [Compound 58, [4-(6-Amino-pyridazin-3-yl)-piperidin-l-yl]-[2-methoxy-4′-(2,2,2-trifluoro-ethoxy)-biphenyl-4-yl]-methanone]",7.09
6,"COc1cc(C(=O)N2CCC(c3ccc(N)nn3)CC2)ncc1-c1ccc(OC(C)C)cc1 [Compound 30, [4-(6-Amino-pyridazin-3-yl)-piperidin-1-yl]-[5-(4-isopropoxy-phenyl)-4-methoxy-pyridin-2-yl]-methanone]",6.47
7,"COc1cc(-c2cnc(C(=O)N3CCC(c4ccc(N)nn4)CC3)cc2OC)ccc1F [Compound 14, [4-(6-Amino-pyridazin-3-yl)-piperidin-1-yl]-[5-(4-fluoro-3-methoxy-phenyl)-4-methoxy-pyridin-2-yl]-methanone]",5.48
8,"COc1cc(C(=O)N2CCN(c3cnc(N)cc3OC)C[C@H]2CO)ncc1-c1ccccc1 [Compound 89, [(S)-4-(6-Amino-4-methoxy-pyridin-3-yl)-2-hydroxymethyl-piperazin-1-yl]-(4-methoxy-5-phenyl-pyridin-2-yl)-methanone]",6.27
9,"COc1cc(C(=O)N2CCC(c3ccc(N)nn3)CC2)ccc1-c1ccc(O[C@H](C)C2CC2)nc1 [Compound 81, [4-(6-Amino-pyridazin-3-yl)-piperidin-1-yl]-{4-[6-((R)-1-cyclopropyl-ethoxy)-pyridin-3-yl]-3-methoxy-phenyl}-methanone]",6.66
10,"COc1cc(C(=O)N2CCN(c3cnc(N)cc3OC)C[C@H]2CO)ncc1-c1ccc(F)cc1 [Compound 102, [(S)-4-(6-Amino-4-methoxy-pyridin-3-yl)-2-hydroxymethyl-piperazin-1-yl]-[5-(4-fluoro-phenyl)-4-methoxy-pyridin-2-yl]-methanone]",6.08
11,"Nc1ccc(C2CCN(C(=O)c3ccc(-c4cccc(F)c4)cc3)CC2)nn1 [Compound 8, [4-(6-Amino-pyridazin-3-yl)-piperidin-1-yl]-(3′-fluoro-biphenyl-4-yl)-methanone]",5.17
12,"COc1cccc(-c2ccc(C(=O)N3CCC(c4ccc(N)nn4)CC3)cc2)c1 [Compound 9, [4-(6-Amino-pyridazin-3-yl)-piperidin-1-yl]-(3′-methoxy-biphenyl-4-yl)-methanone]",5.27
13,"CC[C@@H](C)Oc1ccc(-c2ccc(C(=O)N3CCC(c4ccc(N)nn4)CC3)cc2OC)cn1 [Compound 74, [4-(6-Amino-pyridazin-3-yl)-piperidin-1-yl]-{4-[6-((R)-sec-butoxy)-pyridin-3-yl]-3-methoxy-phenyl}-methanone]",6.85
14,"COc1cc(C(=O)N2CCN(c3cnc(N)cc3C)C[C@@H]2CO)ncc1-c1ccc(C(F)(F)F)cc1 [Compound 92, [(R)-4-(6-Amino-4-methyl-pyridin-3-yl)-2-hydroxymethyl-piperazin-1-yl]-[4-methoxy-5-(4-trifluoromethyl-phenyl)-pyridin-2-yl]-methanone]",7.25
15,"COc1cc(C(=O)N2CCC(c3ccc(N)nn3)CC2)ncc1-c1ccc(F)cc1 [Compound 36, 6-{1-[5-(4-Fluorophenyl)-4-methoxypyridine-2-carbonyl]piperidin-4-yl}pyridazin-3-amine]",7.57
16,"COc1cc(C(=O)N2CCN(c3ccc(N)nc3)C[C@@H]2CO)ncc1-c1ccc(F)cc1 [Compound 90, [(R)-4-(6-Amino-pyridin-3-yl)-2-hydroxymethyl-piperazin-1-yl]-[5-(4-fluoro-phenyl)-4-methoxy-pyridin-2-yl]-methanone]",6.43
17,"COc1cc(C(=O)N2CCC(c3ccc(N)nn3)CC2)ccc1-c1ccc(OC(C)C)cc1 [Compound 57, [4-(6-Amino-pyridazin-3-yl)-piperidin-1-yl]-(4′-isopropoxy-2-methoxy-biphenyl-4-yl)-methanone]",6.49
